This experiment relates to L1210 leukemia ip in BDF1 mice, survival T/C. Kind of experiment: NCI In Vivo Anticancer Drug Screen. Data for tumor model L1210 Leukemia (intraperitoneal) in B6D2F1 (BDF1) mice. As to conditions: endpoint: mean survival time, higher = longer survival. The method, boiled down: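 Antitumor effect is assessed in tumor-bearing animals. Survival in the compound arm is compared with a vehicle-dosed control arm and expressed as their quotient.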

[1] abbreviates: dose: 100.0 mg/kg/injection, schedule: Q01DX009 (ip), vehicle: saline with Tween-80.
The mark [2] stands for this setting: dose: 200.0 mg/kg/injection, schedule: Q01DX009 (ip), vehicle: saline with Tween-80.
Where [3] appears, read: dose: 400.0 mg/kg/injection, schedule: Q01DX009 (ip), vehicle: saline with Tween-80.
[4] abbreviates: dose: 100.0 mg/kg/injection, schedule: Q04DX003 (ip), vehicle: Klucel (hydroxypropylcellulose) (HPC).
Where [5] appears, read: dose: 200.0 mg/kg/injection, schedule: Q04DX003 (ip), vehicle: Klucel (hydroxypropylcellulose) (HPC).
Where [6] appears, read: dose: 400.0 mg/kg/injection, schedule: Q04DX003 (ip), vehicle: Klucel (hydroxypropylcellulose) (HPC).

The structures appear in SMILES notation. “And” between values parts separate entries of the source, which are not always exact repeats. Equal values may be shown once. Toxic doses and inconclusive results are not listed.

Take `CN=C(N)c1ccc(NC(=O)c2ccc(C(=O)Nc3ccc(C(N)=NC)cc3)cc2)cc1`: the T/C reads like this: (dose: 1.9 mg/kg/injection, schedule: Q01DX Z (ip), vehicle: methylcellulose (MC)) 102 % of control; (dose: 2.0 mg/kg/injection, schedule: Q01DX006 (iv), vehicle: saline) 104 % of control; (dose: 2.0 mg/kg/injection, schedule: Q01DX Z (sc), vehicle: saline) 101 % of control; (dose: 2.0 mg/kg/injection, schedule: Q02DX004 (im), vehicle: saline) 103 % of control; (dose: 3.75 mg/kg/injection, schedule: Q01DX Z (ip), vehicle: methylcellulose (MC)) 124 % of control; (dose: 4.0 mg/kg/injection, schedule: Q01DX006 (iv), vehicle: saline) 103 % of control. In addition, the T/C is 97 % of control (dose: 4.0 mg/kg/injection, schedule: Q01DX Z (sc), vehicle: saline); 103 % of control (dose: 4.0 mg/kg/injection, schedule: Q02DX004 (im), vehicle: saline); 177 % of control (dose: 5.5 mg/kg/injection, schedule: Q01DX Z (ip), vehicle: methylcellulose (MC)); 106 % of control (dose: 8.0 mg/kg/injection, schedule: Q01DX006 (iv), vehicle: saline); 106 % of control (dose: 8.0 mg/kg/injection, schedule: Q01DX010 (oral), vehicle: saline); 94 % of control (dose: 8.0 mg/kg/injection, schedule: Q01DX Z (sc), vehicle: saline). For the same molecule, the T/C (dose: 8.0 mg/kg/injection, schedule: Q02DX004 (im), vehicle: saline) was 108 % of control; the T/C (dose: 15.0 mg/kg/injection, schedule: Q01DX Z (ip), vehicle: methylcellulose (MC)) is 150 % of control and 156 % of control; the T/C (dose: 16.0 mg/kg/injection, schedule: Q01DX010 (oral), vehicle: saline) is 97 % of control; the T/C (dose: 16.0 mg/kg/injection, schedule: Q01DX Z (sc), vehicle: saline) was 98 % of control; the T/C (dose: 16.0 mg/kg/injection, schedule: Q02DX004 (im), vehicle: saline) was 108 % of control; the T/C (dose: 30.0 mg/kg/injection, schedule: Q01DX Z (ip), vehicle: methylcellulose (MC)) was 171 % of control and 173 % of control. Moreover, the T/C is, setting by setting: (dose: 32.0 mg/kg/injection, schedule: Q01DX010 (oral), vehicle: saline) 97 % of control; (dose: 42.4 mg/kg/injection, schedule: Q01DX007 (oral), vehicle: carboxymethylcellulose (CMC)) 100 % of control; (dose: 60.0 mg/kg/injection, schedule: Q01DX Z (ip), vehicle: methylcellulose (MC)) 174 % of control; (dose: 64.0 mg/kg/injection, schedule: Q01DX007 (oral), vehicle: carboxymethylcellulose (CMC)) 105 % of control; (dose: 64.0 mg/kg/injection, schedule: Q01DX010 (oral), vehicle: saline) 103 % of control; (dose: 96.0 mg/kg/injection, schedule: Q01DX007 (oral), vehicle: carboxymethylcellulose (CMC)) 103 % of control. The T/C (dose: 120.0 mg/kg/injection, schedule: Q01DX Z (ip), vehicle: methylcellulose (MC)) is 108 % of control; the T/C (dose: 144.0 mg/kg/injection, schedule: Q01DX007 (oral), vehicle: carboxymethylcellulose (CMC)) is 108 % of control; the T/C (dose: 150.0 mg/kg/injection, schedule: Q01DX Z (oral), vehicle: saline) was 100 % of control; the T/C (dose: 300.0 mg/kg/injection, schedule: Q01DX Z (oral), vehicle: saline) was 93 % of control; the T/C (dose: 600.0 mg/kg/injection, schedule: Q01DX Z (oral), vehicle: saline) was 115 % of control.

`Nc1c(Cl)ncnc1Nc1cccc(C(=O)O)c1`: the T/C runs as follows: (dose: 50.0 mg/kg/injection, schedule: Q01DX001 (ip), vehicle: saline) 98 % of control; (dose: 100.0 mg/kg/injection, schedule: Q01DX001 (ip), vehicle: saline) 108 % of control; (dose: 200.0 mg/kg/injection, schedule: Q01DX001 (ip), vehicle: saline) 102 % of control; (dose: 400.0 mg/kg/injection, schedule: Q01DX001 (ip), vehicle: saline) 93 % of control.

As to `O=C1C(c2ccccc2)=c2c(c3ccccc3c3ccccc23)=C1c1ccccc1`, the T/C (dose: 50.0 mg/kg/injection, schedule: Q01DX001 (ip), vehicle: carboxymethylcellulose (CMC)) was 103 % of control and 100 % of control; the T/C (dose: 100.0 mg/kg/injection, schedule: Q01DX001 (ip), vehicle: carboxymethylcellulose (CMC)) is 100 % of control and 97 % of control; the T/C under setting [1] is 96 % of control; the T/C (dose: 200.0 mg/kg/injection, schedule: Q01DX001 (ip), vehicle: carboxymethylcellulose (CMC)) was 100 % of control and 97 % of control; the T/C under setting [2] is 90 % of control; the T/C (dose: 400.0 mg/kg/injection, schedule: Q01DX001 (ip), vehicle: carboxymethylcellulose (CMC)) was 94 % of control. Also, the T/C under setting [3] was 93 % of control.

For `CCN1CCc2cc3c(cc2C1)OCO3`, the T/C runs as follows: (dose: 10.0 mg/kg/injection, schedule: Q01DX001 (ip), vehicle: carboxymethylcellulose (CMC)) 98 % of control; (dose: 20.0 mg/kg/injection, schedule: Q01DX001 (ip), vehicle: carboxymethylcellulose (CMC)) 93 % of control; (dose: 40.0 mg/kg/injection, schedule: Q01DX001 (ip), vehicle: carboxymethylcellulose (CMC)) 94 % of control; (dose: 80.0 mg/kg/injection, schedule: Q01DX001 (ip), vehicle: carboxymethylcellulose (CMC)) 96 % of control.

Take `CCN(CC)CCOc1ccc(-c2nc3cc(Cl)ccc3s2)cc1`: the T/C (dose: 15.0 mg/kg/injection, schedule: Q01DX015 (ip), vehicle: saline) was 95 % of control; the T/C (dose: 30.0 mg/kg/injection, schedule: Q01DX015 (ip), vehicle: saline) is 94 % of control; the T/C (dose: 60.0 mg/kg/injection, schedule: Q01DX015 (ip), vehicle: saline) was 94 % of control; the T/C (dose: 120.0 mg/kg/injection, schedule: Q01DX015 (ip), vehicle: saline) is 91 % of control.

`Cc1ccc2c3nc4ccccc4c-3csc2c1`: the T/C is, setting by setting: (dose: 6.25 mg/kg/injection, schedule: Q01DX009 (ip), vehicle: saline) 103 % of control; (dose: 12.5 mg/kg/injection, schedule: Q01DX009 (ip), vehicle: saline) 108 % of control and 103 % of control; (dose: 12.5 mg/kg/injection, schedule: Q04DX003 (ip), vehicle: saline) 93 % of control and 92 % of control; (dose: 25.0 mg/kg/injection, schedule: Q01DX009 (ip), vehicle: saline) 98 % of control and 93 % of control; (dose: 25.0 mg/kg/injection, schedule: Q04DX003 (ip), vehicle: saline) 93 % of control and 90 % of control; (dose: 35.0 mg/kg/injection, schedule: Q01DX009 (ip), vehicle: saline) 101 % of control and 86 % of control. Besides, the T/C is 87 % of control (dose: 50.0 mg/kg/injection, schedule: Q04DX003 (ip), vehicle: saline); 93 % of control and 92 % of control (dose: 55.0 mg/kg/injection, schedule: Q01DX009 (ip), vehicle: saline).

In the case of `CC1=CC2(C)CCC(=O)C(Cc3c(CCCC4(C)OCCO4)noc3C)=C2CC1` (configuration not stated), the T/C by setting is: under setting [4], 95 % of control; under setting [5], 95 % of control; under setting [6], 91 % of control.

Consider `CCOC(=O)c1cnc(N)nc1`, for which the T/C under setting [4] is 97 % of control, the T/C under setting [5] was 101 % of control and the T/C under setting [6] is 98 % of control.

Take `CCCCCCCCCCCCCCCCCC(=O)N/N=C\c1ccc(O)c(OC)c1`: the T/C (dose: 100.0 mg/kg/injection, schedule: Q01DX009 (ip), vehicle: Klucel (hydroxypropylcellulose) (HPC)) was 95 % of control; the T/C (dose: 200.0 mg/kg/injection, schedule: Q01DX009 (ip), vehicle: Klucel (hydroxypropylcellulose) (HPC)) is 90 % of control; the T/C (dose: 400.0 mg/kg/injection, schedule: Q01DX009 (ip), vehicle: Klucel (hydroxypropylcellulose) (HPC)) was 88 % of control.

As for `C=CCCCCCCCCC(=O)NCC1CCCCO1` (configuration not stated), the T/C under setting [1] was 94 % of control, the T/C under setting [2] is 97 % of control and the T/C under setting [3] was 101 % of control.

For `CC(C)NC(=O)Oc1cccc(NC(=O)N(C)C)c1`, the T/C is, setting by setting: under setting [1], 93 % of control; under setting [2], 93 % of control; under setting [3], 93 % of control.

Regarding `Cc1cc(OS(=O)(=O)/C=C/c2ccccc2)c(C(C)C)cc1Cl`, the T/C is 93 % of control (dose: 100.0 mg/kg/injection, schedule: Q01DX001 (ip), vehicle: acetone); 100 % of control (dose: 100.0 mg/kg/injection, schedule: Q01DX009 (ip), vehicle: acetone); 98 % of control (dose: 200.0 mg/kg/injection, schedule: Q01DX001 (ip), vehicle: acetone); 98 % of control (dose: 200.0 mg/kg/injection, schedule: Q01DX009 (ip), vehicle: acetone); 98 % of control (dose: 400.0 mg/kg/injection, schedule: Q01DX001 (ip), vehicle: acetone); 95 % of control (dose: 400.0 mg/kg/injection, schedule: Q01DX009 (ip), vehicle: acetone).

Source of the values: PubChem BioAssay AID248 (DTP/NCI, 2004).
